Reference: patent publication US20240024216A1, “METHODS AND MATERIALS FOR TREATING HAIR LOSS” (The Penn State Research Foundation, priority 2021, published 2024)

Key:
[1] = system: human foreskin primary keratinocytes; experiment: Keratinocyte scratch assay with 4-AP, NGF and NGF-antibody; format: cell-based; conditions: at 12 hours
Protocol: Keratinocytes (7×10^4 cells/well) with KC medium were seeded on collagen-I pre-coated 96-well ImageLock microplate for 6 hours. For the drug treatment cells were pretreated with 4-AP prior to coating for 16-18 hours. Next, the wound scratch was created using IncuCyte automated system. After scratches the cells washed with PBS and the respective cells medium was added with individual 1 mM of 4-AP and 200 ng/ml of NGF (MyBioSource, Inc., Catlog No. MBS7114974) in keratinocytes medium and combination of 1 mM of 4-AP & 200 ng/mL NGF with or without 10 μg/ml of NGF-antibody (ThermoFisher Scientific, Catlog No. MA5-32067). The plate was incubated in Incucyte automated imaging system, wound healing and cells migration imaged for every hour until 24 hour and analyzed for percent of closure as described above procedure.

[2] = system: keratinocytes co-cultured with fibroblasts (10:1); experiment: Co-culture scratch assay, keratinocytes with fibroblasts; format: cell-based, human; conditions: measured at 15 hours; 72% in non-treated
Protocol: (§1) To determine the influence of Schwann cells and fibroblast on keratinocytes migration and proliferation wound healing scratch assay was conducted. The co-culture experiment performed in Keratinocytes to either Schwann cells or fibroblasts in a ratio of 10:1 with same proposition of their respective medium were seeded on 96-well ImageLock microplate for 6 hours and the wells were pre-coated with collagen-I plate. For the drug treatment cells were pretreated with 4-AP prior to coating for 16-18 hours. Next, the wound scratch was created and treated cells with and without 4-AP in medium. Imaged for every hour until 24 hour and analyzed for percent of closure as described above procedure.

[3] = system: human foreskin dermal primary fibroblast; experiment: Scratch wound healing migration assay, primary dermal fibroblasts; format: cell-based
[4] = system: human foreskin dermal primary Schwann cells; experiment: Scratch wound healing migration assay, primary dermal Schwann cells; format: cell-based
Protocol: Dermal Schwann cells isolation culture conditions and characterization—The separated dermis was minced into small pieces and placed in a petri dish containing collagenase in DMEM basal medium at 37° C. for 2.5 hours. The dermis was completely dissociated and the medium was cloudy. The dissociated medium was collected in tube and centrifuged at 1500 rpm for 5 minutes. The pellet was resuspended in complete DMEM medium, added on poly-L-lysine coated dish and the dish was incubated at 37° C. in 5% CO2 incubator for overnight. Next day, adhered cells were treated with 10 μM cytosine arabinoside containing DMEM complete medium and incubated at 37° C. in 5% CO2 incubator for 24 hours. After, the cells were cultured in Schwann cells culture medium (ScienCell Research, Catlog No. 1701) until the cells reached about 95% confluence.
Keratinocytes/Schwann cells/fibroblasts (7×10^4 cells/well keratinocytes and 3.5×10^4 cells/well of SCs and FBs) with their respective medium were seeded on pre-coated either with collagen-I/PLL/no 96-well ImageLock microplate for 6 hours (Incucyte-sartorius plate, Cat log 4379). For the drug treatment cells were pretreated with 4-AP prior to coating for 16-18 hours. […] The plate was incubated in Incucyte automated imaging system, wound healing and cells migration was monitored by time-lapse photography capturing every hour from 0 to 42 hours. […]

C57BL/6 mice = experiment: Hair regrowth after dorsal hair removal in mice; format: in vivo
Protocol: Wild-type C57BL/6 mice (7-8 weeks old) were placed in the lateral decubitus position on a sterile paper sheet after anesthesia using intraperitoneal injection of ketamine (60 mg/kg) and xylazine (4 mg/kg). Sterile surgical instruments (autoclaved) were used during dorsal hair removal. The skin was prepared for hair removal on the dorso-lateral skin (from neck to tail) by shaving with a mechanical shaver, and then hair removal cream (Nair) was placed on the skin for 30-60 seconds. Hair was removed completely by gently wiping the skin with cotton balls soaked in warm water and disinfected using 70% ethanol wipes and betadine 3 times.
After dorsal hair removal, mice were placed in a clean cage on the heating pad for 30 minutes or until recovery. […]
At day 14, the backs of the mice were photographed with a digital camera, to evaluate the darkening of skin color. […] In morphological observation (FIG. 1A and FIG. 1), hair growth area was determined as a percentage after photographing hair growth state on the backs of mice and observation was conducted after hair removal at day 0 and after 4-AP treatment (daily systemic) at day 14. […] The level of hair regrowth/pigmentation was quantified by the intensity of the darkness of the back skin in the same area. […]

[5] = system: keratinocytes co-cultured with SCs (10:1); experiment: Co-culture scratch assay, keratinocytes with Schwann cells; format: cell-based, human
Protocol: as §1

Nc1ccncc1 [4-AP, 4-aminopyridine]
scratch closure ([1]; 56% in control cultures, 1 mM 4-AP, 200 ng/ml NGF): 75% | scratch closure with NGF-neutralizing antibody ([1]; plus 10 μg/ml NGF-antibody): 67% | scratch closure [2]: 93% | fibroblast migration ([3]; 1 mM 4-AP vs no treatment): unaffected | vimentin and α-SMA protein expression (fibroblast to myofibroblast conversion) ([3]; 4-AP exposed vs no treatment): increased | time to 80% scratch closure ([4]; 1 mM 4-AP, 23 hours without treatment): 11 h | SOX10 and NGF expression in SCs ([4]; compared to controls): increased | number of hair follicles (H&E transverse sections) (C57BL/6 mice; day 14, compared with saline treated mice): increased | hair regrowth (C57BL/6 mice; day 14 after hair removal, systemic ip 10-50 μg/daily): around 50% | percentage of wound closure ([5]; at 15 hours, 80% in non-treated): 98% | time to scratch closure ([5]; with 4-AP, 20 hours without treatment): ≤ 15 h
